Data as given in patent publication US4923865A, “Substituted 1-(1H-imidazol-4-yl)alkyl-benzamides as anti-ischemics and as alpha-2-adrenergic receptor agonists” (U C B Societe Anonyme, priority 1988, dated 1990).
pIC50: −log10 of the molar value.

Legend:
male NMRI mice = experiment: Toxicity, Irwin's test (lethal dose); assay type: in vivo; settings: intraperitoneal
Procedure: 5. Toxicity. The toxicity of the compounds according to the present invention has been determined in male NMRI mice by means of Irwin's test (S. IRWIN, Psychopharmacologia, 13, (1968), 222-257).
Progressive doses of the test compound are administered intraperitoneally to groups of three mice until the lethal dose is reached (dose causing the death of two out of three animals within 48 hours). In Table IX below, the lethal dose in mg/kg found for the compounds of the invention is given. It can be seen from this Table that the compounds of the invention are not very toxic.

myocardial ischemia = experiment: Artificially induced acute coronary insufficiency in an awake dog (ST-segment elevation); assay type: in vivo; settings: Canis lupus familiaris, 0.1 h, intravenous, 6 min coronary occlusion, groups of ten animals, read-out: DE20 (dose producing a mean reduction of at least 20% of the ST-segment elevation)
Source text: Because of the reduction in the oxygen supply which results from this, the occlusion produces myocardial ischemia which is expressed on the electrocardiogram by a reproducible and quantifiable ST-segment elevation. The anti-ischemic action of a compound results in a reduction of the magnitude of the ST-segment elevation. (P. R. MAROKO and E. BRAUNWALD, Circulation, 53, (1976, Suppl. I), 162-168; S. E. EPSTEIN et al., Circulation, 53, (1976, Suppl. I), 191-197).

α2 -adrenergic receptors = target: T1, α2 -adrenergic receptors (Rattus norvegicus, UniProt P22909); experiment: Competitive binding assay with [^3 H]clonidine on rat brain membranes; settings: 30 minutes incubation, read-out: IC50 (50% inhibition of the binding of [^3 H]clonidine)
T1 construct: three different preparations of rat brain membranes; from tissue; host or cells: rat brain membranes
T1 sequence (P22909 1-465): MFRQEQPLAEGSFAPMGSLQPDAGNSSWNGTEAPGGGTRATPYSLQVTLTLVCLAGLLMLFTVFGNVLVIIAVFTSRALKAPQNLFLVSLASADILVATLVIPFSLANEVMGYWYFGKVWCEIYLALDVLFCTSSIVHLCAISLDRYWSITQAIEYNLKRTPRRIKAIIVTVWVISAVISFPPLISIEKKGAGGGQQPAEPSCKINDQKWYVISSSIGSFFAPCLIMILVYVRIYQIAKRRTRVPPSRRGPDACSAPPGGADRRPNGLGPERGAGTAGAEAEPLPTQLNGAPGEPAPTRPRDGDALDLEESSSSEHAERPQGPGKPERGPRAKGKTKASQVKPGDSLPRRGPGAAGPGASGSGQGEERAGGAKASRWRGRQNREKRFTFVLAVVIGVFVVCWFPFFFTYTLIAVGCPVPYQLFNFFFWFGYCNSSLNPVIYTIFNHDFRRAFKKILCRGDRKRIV
Source text: (a) Competitive binding assay with a radioligand. The object of competitive binding assays is to measure the affinity of the compounds of the invention for α2 -adrenoceptors. These conventional experiments involve the competition for binding to α2 -adrenergic receptors between the tested compound on the one hand, and on the other hand, a radioligand which, in this particular case of α2 -adrenergic receptors, is the [^3 H]clonidine which is known to be a specific α2 -adrenergic agonist.
The method used is that of D. C. U'PRICHARD et al., Mol. Pharmacol. 13, (1977), 454-473.
The displacement curves for binding of [^3 H]clonidine have been determined with nine concentrations of compound A, ranging from 10^-4 to 10^-10 mole/l, and with three different preparations of rat brain membranes. The samples were incubated for 30 minutes, and then filtered under reduced pressure using a Whatman GF/B filter. The filters are washed three times with 5 ml of Tris-HCl buffer (pH 7.5 at 0° C.) and then dried for one minute. The radioactivity is measured in an Econofluor (-NEN Corp.) medium. The [^3 H]clonidine (25.5 Ci/mmole) used is provided by Amersham.
The affinity of compound A for the α2 -adrenergic receptors has been calculated from the displacement curves of the [^3 H]clonidine. […]

Cl.NC(=O)c1cccc(Cc2c[nH]cn2)c1O [A, 2-hydroxyl-3-[(1H-imidazol-4-yl)methyl]-benzamide hydrochloride] was tested, and the “lethal dose (death of two out of three animals within 48 hours)” value (male NMRI mice) was 760 mg/kg, the ED20 (myocardial ischemia) was 0.03 µmol/kg and the pIC50 (α2 -adrenergic receptors) was 8.05.
